Laboratory results published in publication PMC10021052, “Novel multivalent S100A8 inhibitory peptides attenuate tumor progression and metastasis by inhibiting the TLR4-dependent pathway” (Cancer Gene Therapy, 2023).
“Also recorded” adds a separate entry of the source.

Legend:
[1] = tested on: S100A8-TLR4/MD-2 complex; assay: Competitive inhibition of S100A8-TLR4/MD-2 binding (ELISA, S100A8 immobilized; also immunoprecipitation); design: species or system human; settings: ELISA, peptide3A5 vs peptide #3 (Fig. 3B); divalent vs monomer (Fig. 4A)
Description: (§1) S100A8 recombinant protein was purified as previously described. These proteins were immobilized on Maxisorp plates (Thermo Fisher Scientific, Waltham, MA, USA), followed by blocking with protein-free blocking buffer (Thermo Fisher Scientific). TLR4/MD-2 recombinant proteins with various concentrations of candidate peptides were then added to the indicated S100A8-immobilized ELISA plates for 2 h. The plates were washed, incubated with anti-TLR4 antibody, and HRP-conjugated secondary antibody, followed by the addition of substrate. The reaction was stopped by addition a 2N H2SO4 solution. Absorbance OD450/OD650 was measured using a microplate reader (Thermo Fisher Scientific). Maxisorp plates were also used for peptide coating. After blocking with protein-free blocking buffer, the coated plates were washed, and TLR4/MD-2 recombinant protein (2 µg/ml) was added to each well. The plates were incubated with a TLR4 antibody followed by horseradish peroxidase (HRP)-labeled anti-rabbit IgG. For detection of IL8 and VEGF in culture supernatants, SW480 cells were pretreated with the indicated peptides, and followed by stimulation with S100A8 for 24 h. The amount of interleukin-8 (IL-8) or VEGF in the supernatants were analyzed by ELISA kits (R&D Systems, Mineapolis, MN) according to the manufacturer’s instructions.
Fig. 2 Identification of S100A8 binding sites to human TLR4/MD-2. […] TLR4/MD-2 recombinant proteins were immobilized to the ELISA plate. After blocking, a full length or deletion mutant of S100A8 was added to the plate. The more detailed methods are described in Materials and Methods. […] B A series of overlapping S100A8 synthetic peptides. The TLR4/MD-2 recombinant proteins were added to each well of peptide immobilized plates. The affinity to TLR4/MD-2 was determined. Data are shown as mean ± SD. C The competitive activity was determined using ELISA. Data are shown as mean ± SD. D The TLR4/MD-2 was mixed with S100A8 with/without the indicated peptides, and immunoprecipitated using an anti-TLR4 antibody. TLR4 or S100A8 was visualized. Similar results were obtained in three independent experiments. […] Total RNAs from SW480 cells with/without treatment of the peptide candidates were extracted and qPCR analysis was performed using relevant primer sets and SYBR green. Relative expression levels were compared. […] TEXT PRINTED IN THE PICTURE: (A) Full length: TLR4/MD-2 binding: + | (A) S100A8-ΔC: TLR4/MD-2 binding: − | (A) S100A8-N: TLR4/MD-2 binding: −
(§2) Fig. 4 Improvement of competitive inhibition activity by divalent peptide3A5. A The binding capacity was measured at the indicated concentration using an ELISA-based assay. Similar results were obtained in three independent experiments. B SW480 cells were pretreated with 2.5 µM of divalent peptide3A5, and then stimulated with human S100A8 recombinant protein. After 30 min, cell lysates were subjected to western blotting using the indicated antibody. The divalent peptide#3 or peptide3A5 reduced the expression of S100A8-mediated IL-8 (C) and VEGF (D) induction. Total RNAs from SW480 cells with/without treatment of the peptide candidates were extracted and qPCR analysis was performed using relevant primer sets and SYBR green. Relative expression levels were compared. Peptide #3 suppresses S100A8-mediated IL-8(E) and VEGF (F) secretion in SW480 cells.

[2] = tested on: SW480 cells; assay: ELISA, IL-8 and VEGF secretion of SW480 cells; type: cell-based, human; settings: peptide pretreatment, S100A8 24 h, supernatant ELISA; *P < 0.05 vs S100A8
Description: as §1

[3] = tested on: p38 and p65 (NF-κB) in SW480 cells; assay: Western blotting, S100A8-induced phosphorylation of p38 and p65 in SW480 cells; type: cell-based; settings: 2.5 µM pretreatment, human S100A8 30 min
Description: Cells were lysed in lysis buffer (50 mM Tris-HCl [pH 7.4], 150 mM NaCl, 5 mM Na4P2O7, 10 mM β-glycerophosphate, 25 mM NaF, 1 mM EDTA, 1 mM EGTA, 1 mM Na3VO4, and 1% [v/v] Triton X-100) containing the cOmplete^TM Mini protease inhibitor cocktail (Roche Diagnostics, Indianapolis, IN, USA) as described previously. Cell lysates (20 µg) were separated using SDS-PAGE and transferred to an Immun-Blot PVDF membrane (Bio-Rad, Hercules, CA, USA). After blocking with Blocking One or Blocking One-P (Nacalai tesque, Kyoto, Japan), membranes were probed with the indicated antibodies, followed by HRP-labeled anti-rabbit IgG and anti-mouse IgG (GE Healthcare). Signals were visualized using Immobilon Western HRP Substrate (Millipore, Billerica, USA).
as §2, with “Total RNAs from SW480 cells with/without treatment of the peptide candidates were extracted and qPCR analysis was performed using relevant primer sets and SYBR green. Relative expression levels were compared. Peptide #3 suppresses S100A8-mediated IL-8(E) and VEGF (F) secretion in SW480 cells.” left out

[4] = tested on: Balb nu/nu mice; assay: Toxicity: biochemical, body weight and hematological tests; type: in vivo, mouse; settings: Supplementary Table 1
Description: We then examined the effect of divalent peptide3A5 on tumor growth in vivo.

[5] = tested on: MDSCs; assay: MDSCs in LLC tumor-bearing mice; type: in vivo, C57BL/6J mice; settings: peripheral blood of LLC-tumor-bearing mice; *P < 0.05 vs control
[6] = tested on: CD8+ cells; assay: Intratumoral infiltrating CD8+ cells; type: in vivo, mouse; settings: Supplementary Fig. 3A
Description: To immunostain tumor vasculatures, the cryo sections (6 µm) obtained from frozen primary tumors, were incubated with anti-CD31 (BD Pharmingen, Cat No. 550274), and/or anti-α-SMA-Cy3 (Sigma-Aldrich, Cat No. C6198) followed by AlexaFlour 488-conjugated rat IgG secondary antibodies (Thermo Fisher Scientific) were used to visualize the signals by a confocal microscopy (LSM-710; Carl Zeiss). DAPI staining was used for nuclear staining. For immunohistochemistry, the paraffin-embedded sections were cut 4 µm thick and then deparaffinized, rehydrated and then treated for antigen retrieval. The sections were incubated with the indicated antibody overnight, followed by incubation with ImmPRESS HRP Reagent (Vector, Newark, CA). ImmPACT DAB (Vector) was used for visualization of the signals. The images were captured by BZ-X800 (Keyence, Osaka, Japan).

[7] = tested on: tumor cells and macrophages; assay: Cytokine/chemokine induction in tumor cells and macrophages; type: cell-based; settings: possible mechanism scheme, Fig. 7I
[8] = tested on: LLC tumor; assay: Tumor growth in LLC tumor-bearing mice; settings: *P < 0.05 vs control; for LLC tumor growth, monotherapy: 10 mg/kg i.p. every 3 days, five mice per group
Description: Balb nu/nu or C57BL/6J mice were purchased from Clea Japan Inc. (Tokyo, Japan). Mice were used for experiments at 2–3 months of age. For SW480 transplanted xenograft model, SW480 cells were subcutaneously implanted into male Balb nu/nu mice. […] For generation of the Lewis lung cancer implantation mouse model, LLC cells were subcutaneously implanted into male C57BL/6J mice. […] Anti-PD-1 antibodies (Biolegend, San Diego, CA, USA) were used for combination therapy. To determine the tumor volume, the longitudinal diameter (length) and transverse diameter (width) were determined. Tumor volume based on measurements by Vernier calipers was calculated as tumor volume = ½ (length × width^2). For in vivo S100A8 stimulation, C57BL/6J mice were intravenously injected with mammalian-derived S100A8. Four hours after the i.v. injection, mice were sacrificed, and minced mouse lungs were digested with collagenase/dispase/DNase solution. Collected cells were incubated with anti-CD11b-PE (BD Bioscience), anti-Ly6G-FITC (BD Bioscience), and anti-Ly6C-APC (BD Bioscience) antibodies, and analyzed by a flow cytometry (Cytomics FC500; Beckman Coulter, Brea, CA, USA). […] After 24 h, PKH26 (Sigma-Aldrich)-fluorescent-labeled LLC cells were intravenously injected into TCM-stimulated C57BL6J mice. The mice were sacrificed after 16 h, and minced mouse lungs were digested with collagenase/dispase/DNase solution. The recruitment of MDSCs or PKH-26 labeled tumor cells in the lungs was determined by flow cytometry (CytoFlex; Beckman Coulter).
Briefly, LLC cells were implanted s.c. into C57BL/6 J mice. […] Tumor volumes for individual mice were determined at the indicated time points. Each group included five mice. […] Tumor size was determined at the indicated time points. […] Each group included 5–6 mice. The mice were administered tumor conditioned medium once daily for five consecutive days. […] The PKH-26 labeled LLC tumor cells were injected intravenously, the mice were sacrificed, and the cell number was analyzed after 16 h. Each group included 5–6 mice.

Sequence: FQEFAILVIK [Divalent peptide3A5]
- competitive inhibition, potency compared with parent [1]: observed at a lower dose range than the effect of the peptide3A5 monomer
- S100A8-mediated IL-8 secretion [2]: suppressed
- S100A8-mediated VEGF secretion [2]: suppressed
- inhibition of S100A8-induced phosphorylation of p38 [3]: 1.3 fold
- inhibition of S100A8-induced phosphorylation of p65 (NF-κB) [3]: 1.7 fold
- serum ALT ([4]; 10 mg/kg): normal
- serum AST ([4]; 10 mg/kg): normal
- serum LDH ([4]; 10 mg/kg): normal
- body weight [4]: no significant difference
- hematological test [4]: no significant difference
- MDSC cell number [5]: reduced the cell population of MDSCs; also recorded: reduces cell number of MDSCs in peripheral blood
- intratumoral infiltrating CD8+ cells, alone ([6]; LLC tumor-bearing mice): increased
- intratumoral infiltrating CD8+ cells, combination with anti-PD-1 ([6]; combination with anti-PD-1 antibody): increased
- induction of cytokines/chemokines [7]: suppress the induction of cytokines/chemokines in both tumor cells and macrophages
- LLC tumor growth, monotherapy [8]: suppresses tumor progression
- LLC tumor growth, monotherapy ([8]; listed as divalent peptide3A5): inhibited in vivo tumor growth; also recorded: suppressed tumor growth in tumor-bearing mice
- LLC tumor, combination with anti-PD-1 antibody ([8]; with anti-PD-1 every 3 days, 5–6 mice per group): improved the efficacy of anti-programmed death (PD)1 antibody; also recorded: increased the efficacy of anti-PD-1 therapy
